# Paper PMC9505425, “Targeting of the Mitochondrial TET1 Protein by Pyrrolo[3,2-b]pyrrole Chelators” (International Journal of Molecular Sciences, 2022)
# Values joined by “and” are separate entries in the source; they are usually repeats but may differ in a detail not shown here. Identical values can stand only once.
# Columns and labels:
# BT-20 cells = experiment: MTT cytotoxicity assay, BT-20; format: cell-based, human; conditions: for Cell viability % / IC50: 48 h; for IC50: BT-20, MTT
# Protocol: (§1) The effects of the tested compounds 1–6 on HF-P4, U-118 MG, H1299, BT-20, and Caov-3 cell lines were evaluated by the MTT assay during 48 h treatment (Table 2 and Tables S2–S31). In all tested compounds, we recognized a difference in cytotoxicity between healthy cells (HF-P4) and cancer cell lines (BT-20, Caov-3, and H-1299). […] In the case of ovarian cancer, the authors discovered oncogenic and poor prognosis roles of TET1 in epithelial ovarian carcinoma (EOC). TET1 is believed to demethylate the epigenome and activate numerous oncogenic pathways in EOC. The aforementioned study presents a new mechanism where TET1 contributes to tumor development through collaboration with CK2α [21]. The overexpression of the TET1 protein was also found in triple negative breast cancer and was associated with an activation of PI3K/mTOR pathway and decreased overall survival.
# The human mammary gland/breast cell line (BT-20), purchased from ATCC (BT-20 (ATCC® HTB-19™), Manassas, VA, USA), was used for the cytotoxicity assay (MTT), and BT-20 cells were cultivated under standard conditions in Eagle’s minimum essential medium (ATCC, Manassas, VA, USA) supplemented with 10% FBS and streptomycin (100 μg/mL) at 37 °C at a 5% CO2 atmosphere.
# (§2) For the cytotoxicity assay, we used the following cell lines: human glioblastoma cell line U118-MG, human mammary gland/breast cell line BT-20, human ovary adenocarcinoma cell line Caov-3, and non-small-cell lung carcinoma H-1299. As previously mentioned, these cell lines contain a high level of the TET1 protein, which corresponds to a lower overall survival. In addition to these cell cultures, we used the human dermal fibroblast cell line HF-P4 as a healthy control. Determination of cytotoxicity was performed using the MTT [3-(4,5-dimethylthiazol-2-yl)-2,5-diphenyltetrazolium bromide] colorimetric assay. Viable cells from each cell line were cultured in 96-well plates (VWR, Stříbrná Skalice, Czech Republic) at a density of 1.0 × 10^5 cells per well and allowed to grow for 24 h in 200 μL of recommended medium. After a 1-day incubation, the medium was replaced with solutions of compounds 1–6 at concentration ranges of 0.1–20 μM. Each concentration was measured four times within one test, and the entire test was repeated three times. Tested compounds 1–6 were dissolved in DMSO and then diluted with corresponding medium to a final volume of 200 μL (maximum 1% DMSO). After 48 h exposure, cells were treated with 175 μL of MTT solution (P-LAB, Prague, Czech Republic) for 2 h. In the next step, MTT solution was removed, and 125 μL of DMSO (Penta, Prague, Czech Republic) was added to solubilize dark crystals of formazan formed in intact cells, and absorbance was measured at 570 nm by the enzyme-linked immunoabsorbent assay reader Infinite® 200 PRO (Tecan, Männedorf, Switzerland). The final DMSO concentration was smaller than 1% (v/v). The absorbance of untreated cells was considered 100%, and IC50 values were calculated by the GraphPad Prism 8 software. As a parameter for cytotoxicity, we used a concentration that inhibits 50% of cell growth (IC50).
# Caov-3 cells = experiment: MTT cytotoxicity assay, Caov-3; format: cell-based, human; conditions: for Cell viability % / IC50: 48 h; for IC50: Caov-3, MTT
# Protocol: as §1
# The human ovary adenocarcinoma cell line (Caov-3), purchased from ATCC (Caov-3 (ATCC® HTB-75™), Manassas, VA, USA), was used for the cytotoxicity assay (MTT). Caov-3 cells were cultivated under standard conditions in Dulbecco’s modified Eagle’s medium (ATCC, Manassas, VA, USA) supplemented with 10% FBS and streptomycin (100 μg/mL) at 37 °C at a 5% CO2 atmosphere.
# as §2
# [1] = BT-20, 750 nM, repeats, 0.75 µM
# [2] = Homo sapiens, BT-20, 48 h, BT-20, 500 nM, repeats, read-out: Cell viability %
# [3] = Homo sapiens, BT-20, 48 h, BT-20, 1 uM, repeats, read-out: Cell viability %
# [4] = Homo sapiens, BT-20, 48 h, BT-20, 5 uM, repeats, read-out: Cell viability %
# [5] = Homo sapiens, BT-20, 48 h, BT-20, 7.5 uM, repeats, read-out: Cell viability %
# [6] = Homo sapiens, BT-20, 48 h, BT-20, 10 uM, repeats, read-out: Cell viability %
# [7] = Homo sapiens, BT-20, 48 h, BT-20, 15 uM, repeats, read-out: Cell viability %
# [8] = Homo sapiens, BT-20, 48 h, BT-20, 20 uM, repeats, read-out: Cell viability %
# [9] = Caov-3, 100 nM, repeats, 0.1 µM
# [10] = Caov-3, 500 nM, repeats, 0.5 µM
# [11] = Caov-3, 750 nM, repeats, 0.75 µM
# [12] = Caov-3, 2.5 uM, repeats, 2.5 µM
# [13] = Caov-3, 7.5 uM, repeats, 7.5 µM
# [14] = Homo sapiens, Caov-3, 48 h, Caov-3, 750 nM, repeats, read-out: Cell viability %
# [15] = Homo sapiens, Caov-3, 48 h, Caov-3, 15 uM, repeats, read-out: Cell viability %
# [16] = Homo sapiens, Caov-3, 48 h, Caov-3, 20 uM, repeats, read-out: Cell viability %
Structure (SMILES),"Cell viability % (BT-20 cells; BT-20, 100 nM, repeats, 0.1 µM)","Cell viability % (BT-20 cells; BT-20, 500 nM, repeats, 0.5 µM)",Cell viability % (BT-20 cells; [1]),"Cell viability % (BT-20 cells; BT-20, 1 uM, repeats, 1 µM)","Cell viability % (BT-20 cells; BT-20, 2.5 uM, repeats, 2.5 µM)","Cell viability % (BT-20 cells; BT-20, 5 uM, repeats, 5 µM)","Cell viability % (BT-20 cells; BT-20, 7.5 uM, repeats, 7.5 µM)","Cell viability % (BT-20 cells; BT-20, 10 uM, repeats, 10 µM)","Cell viability % (BT-20 cells; BT-20, 15 uM, repeats, 15 µM)","Cell viability % (BT-20 cells; BT-20, 20 uM, repeats, 20 µM)",viability at 0.5 µM (BT-20 cells; [2]) [%],viability at 1 µM (BT-20 cells; [3]) [%],viability at 5 µM (BT-20 cells; [4]) [%],viability at 7.5 µM (BT-20 cells; [5]) [%],viability at 10 µM (BT-20 cells; [6]) [%],viability at 15 µM (BT-20 cells; [7]) [%],viability at 20 µM (BT-20 cells; [8]) [%],IC50 (BT-20 cells; Homo sapiens) [µM],melting point [°C],Cell viability % (Caov-3 cells; [9]),further results
Cc1ccc(-n2c(-c3ccc(C(=O)N/N=C/c4ccc(O)cc4O)cc3)cc3c2cc(-c2ccc(C(=O)N/N=C/c4ccc(O)cc4O)cc2)n3-c2ccc(C)cc2)cc1 [Compound 4],89.05% and 76.97% and 98.11%,90.8088% and 82.57%,103.1798% and 88.69% and 109.7163%,100.5483% and 88.51%,82.74% and 106.2024% and 110.5893%,77.52% and 61.62%,44.3% and 44.18%,18.92% and 21.27%,8.454% and 10.83%,9.864% and 12.92%,77.8,96.3,73.5,37.5,20.1,8.06,8.37,6.22,328 to 329,84.95% and 82.17%,"Cell viability % (Caov-3 cells; [10]): 102.391% and 108.5681%; Cell viability % (Caov-3 cells; [11]): 102.8833% and 94.08%; Cell viability % (Caov-3 cells; Caov-3, 1 uM, repeats, 1 µM): 98.73% and 92.87%; Cell viability % (Caov-3 cells; [12]): 74.65% and 110.1266% and 69.7%; Cell viability % (Caov-3 cells; Caov-3, 5 uM, repeats, 5 µM): 50.71% and 80.94% and 55.26%; Cell viability % (Caov-3 cells; [13]): 53.66% and 54.17%; Cell viability % (Caov-3 cells; Caov-3, 10 uM, repeats, 10 µM): 41.07% and 42.6107%; Cell viability % (Caov-3 cells; Caov-3, 15 uM, repeats, 15 µM): 17.58% and 17.6%; Cell viability % (Caov-3 cells; Caov-3, 20 uM, repeats, 20 µM): 14.91% and 14.49%; viability at 0.1 µM (Caov-3 cells; Homo sapiens, Caov-3, 48 h, Caov-3, 100 nM, repeats, read-out: Cell viability %): 68.6%; viability at 0.5 µM (Caov-3 cells; Homo sapiens, Caov-3, 48 h, Caov-3, 500 nM, repeats, read-out: Cell viability %): 104%; viability at 0.75 µM (Caov-3 cells; [14]): 92.8%; viability at 1 µM (Caov-3 cells; Homo sapiens, Caov-3, 48 h, Caov-3, 1 uM, repeats, read-out: Cell viability %): 101%; viability at 7.5 µM (Caov-3 cells; Homo sapiens, Caov-3, 48 h, Caov-3, 7.5 uM, repeats, read-out: Cell viability %): 53.1%; viability at 10 µM (Caov-3 cells; Homo sapiens, Caov-3, 48 h, Caov-3, 10 uM, repeats, read-out: Cell viability %): 42.9%; viability at 15 µM (Caov-3 cells; [15]): 19.5%; viability at 20 µM (Caov-3 cells; [16]): 14.3%; IC50 (Caov-3 cells; Homo sapiens): 9.13 µM"
Cc1ccc(-n2c(-c3ccc(C(=O)N/N=C/c4ccccc4O)cc3)cc3c2cc(-c2ccc(C(=O)N/N=C/c4ccccc4O)cc2)n3-c2ccc(C)cc2)cc1 [Compound 6],95.0647% and 99.24%,79.35% and 86.49%,84.44% and 98.05%,79.3% and 90.76%,84.17% and 92.79%,70.3% and 79.42%,49.86% and 58.52%,29.6118% and 40.92%,26.72% and 42.11%,24.04% and 23.03%,79.9,91.2,85.8,50.5,36.2,37.8,18.8,9.84,332 to 333,90.2569% and 126.2705% and 118.7488%,"viability at 0.1 µM (BT-20 cells; Homo sapiens, BT-20, 48 h, BT-20, 100 nM, repeats, read-out: Cell viability %): 104%; viability at 0.75 µM (BT-20 cells; Homo sapiens, BT-20, 48 h, BT-20, 750 nM, repeats, read-out: Cell viability %): 85.1%; viability at 2.5 µM (BT-20 cells; Homo sapiens, BT-20, 48 h, BT-20, 2.5 uM, repeats, read-out: Cell viability %): 89.2%; Cell viability % (Caov-3 cells; [10]): 89.11% and 125.1899% and 99.08%; Cell viability % (Caov-3 cells; [11]): 65.96% and 78.5%; Cell viability % (Caov-3 cells; Caov-3, 1 uM, repeats, 1 µM): 64.72% and 111.7508% and 115.9087%; Cell viability % (Caov-3 cells; [12]): 67.86% and 93.922% and 75.11%; Cell viability % (Caov-3 cells; Caov-3, 5 uM, repeats, 5 µM): 62.99% and 65.69% and 100.7653%; Cell viability % (Caov-3 cells; [13]): 58% and 65.63% and 91.09%; Cell viability % (Caov-3 cells; Caov-3, 10 uM, repeats, 10 µM): 52.62% and 73.89% and 61.74%; Cell viability % (Caov-3 cells; Caov-3, 15 uM, repeats, 15 µM): 42.46% and 49.26%; Cell viability % (Caov-3 cells; Caov-3, 20 uM, repeats, 20 µM): 17.34% and 16.88%; viability at 0.75 µM (Caov-3 cells; [14]): 67%; viability at 15 µM (Caov-3 cells; [15]): 36.3%; viability at 20 µM (Caov-3 cells; [16]): 17.4%; IC50 (Caov-3 cells; Homo sapiens): 15.4 µM"
